{"source": "patent US20200308220A1", "about": "“AROMATIC-CATIONIC PEPTIDES CONJUGATED TO AN[…] THEIR USE IN TREATING COMPLEX REGIONAL PAIN SYNDROME” (priority 2015, published 2020)", "key": {"δ opioid receptor (DOR)": {"target": "T1, δ opioid receptor (DOR) (Mus musculus, UniProt P32300)", "T1 construct": "the guinea pig ileum (GPI) and the mouse vas deferens (MVD); from tissue; host or cells: mouse vas deferens", "T1 sequence (P32300 whole entry)": "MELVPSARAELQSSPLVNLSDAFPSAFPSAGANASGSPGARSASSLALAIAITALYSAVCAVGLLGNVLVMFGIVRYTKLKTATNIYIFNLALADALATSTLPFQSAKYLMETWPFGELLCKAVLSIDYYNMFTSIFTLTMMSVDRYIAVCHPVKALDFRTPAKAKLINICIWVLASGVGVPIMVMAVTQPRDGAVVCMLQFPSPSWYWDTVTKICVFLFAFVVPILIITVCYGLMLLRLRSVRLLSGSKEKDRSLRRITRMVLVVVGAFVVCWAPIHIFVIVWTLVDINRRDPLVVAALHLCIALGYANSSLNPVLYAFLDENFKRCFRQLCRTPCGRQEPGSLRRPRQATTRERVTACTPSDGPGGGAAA", "experiment": "Inhibition of electrically evoked contractions of the mouse vas deferens (MVD)", "format": "cell-based", "protocol": "(§1) Peptide conjugates of Table 5 were tested in functional assays based on inhibition of electrically evoked contractions of the guinea pig ileum (GPI) and the mouse vas deferens (MVD). The GPI assay is representative for μ opioid receptor (MOR) interactions, whereas in the MVD assay opioid effects are primarily mediated by the δ opioid receptor (DOR). The assays were carried out as described in DiMaio et al., J. Med. Chem. (1982) 25, 1432-1438. Binding affinities for μ and δ receptors were determined by displacing, respectively, [^3H]DAMGO and [^3H]DSLET from rat brain membrane binding sites (see Schiller et al., Biochem. Biophys. Res. Commun. (1978) 85, 1332-1338)."}, "CPIP rats": {"tested_on": "CPIP rats", "experiment": "Chronic post-ischemia pain (CPIP) rat model of CRPS-I, reversal of mechanical allodynia", "protocol": "H-Dmt-D-Arg-Phe-Lys(NH-TEMPO)-NH2 was tested in a chronic post-ischemia pain (CPIP) rat model (see Coderre et al., Pain (2004) 112, 94-105) of CRPS-I in comparison with [Dmt^1]DALDA and morphine (subcutaneous (s.c.) administration). The analgesic potencies (ED50 values) of the compounds were determined based on their ability to reverse mechanical allodynia in CPIP rats (Table 6)."}, "μ receptors": {"target": "T2, μ receptors (Rattus norvegicus, UniProt P33535)", "T2 construct": "from tissue; host or cells: rat brain membranes", "T2 sequence (P33535 whole entry)": "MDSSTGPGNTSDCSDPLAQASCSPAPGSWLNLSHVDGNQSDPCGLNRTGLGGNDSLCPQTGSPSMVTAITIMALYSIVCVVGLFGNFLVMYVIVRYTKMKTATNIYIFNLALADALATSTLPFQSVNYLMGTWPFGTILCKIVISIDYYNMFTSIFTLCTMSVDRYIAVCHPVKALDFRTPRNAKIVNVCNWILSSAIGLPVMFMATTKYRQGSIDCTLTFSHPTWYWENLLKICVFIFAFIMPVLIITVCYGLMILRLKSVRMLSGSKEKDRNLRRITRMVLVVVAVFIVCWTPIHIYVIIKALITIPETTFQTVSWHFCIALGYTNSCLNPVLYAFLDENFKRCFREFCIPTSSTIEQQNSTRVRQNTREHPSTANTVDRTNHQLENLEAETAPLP", "experiment": "Receptor binding, displacement of [3H]DAMGO from rat brain membrane binding sites", "protocol": "as §1"}, "δ receptors": {"target": "T3, δ receptors (Rattus norvegicus, UniProt P33533)", "T3 construct": "from tissue; host or cells: rat brain membranes", "T3 sequence (P33533 whole entry)": "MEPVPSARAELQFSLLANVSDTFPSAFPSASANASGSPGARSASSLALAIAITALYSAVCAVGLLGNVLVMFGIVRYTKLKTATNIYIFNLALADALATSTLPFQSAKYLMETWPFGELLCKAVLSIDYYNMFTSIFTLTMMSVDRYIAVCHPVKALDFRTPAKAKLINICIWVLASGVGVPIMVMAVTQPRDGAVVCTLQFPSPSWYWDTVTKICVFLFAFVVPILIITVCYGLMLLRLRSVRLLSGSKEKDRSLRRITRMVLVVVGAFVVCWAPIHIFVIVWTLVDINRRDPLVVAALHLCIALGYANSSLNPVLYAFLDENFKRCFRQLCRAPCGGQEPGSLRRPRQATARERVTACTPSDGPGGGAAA", "experiment": "Receptor binding, displacement of [3H]DSLET from rat brain membrane binding sites", "protocol": "as §1"}}, "note": "Where a SMILES comes first, the peptide text is derived from it."}
{"compound": "Cc1cc(O)cc(C)c1C[C@H](N)C(=O)N[C@H](CCCNC(=N)N)C(=O)N[C@@H](Cc1ccccc1)C(=O)NC(CCCCNC1CC(C)(C)N([O])C(C)(C)C1)C(N)=O", "note": "(stereo partly drawn) [H-Dmt-D-Arg-Phe-Lys(NH-TEMPO)-NH2]", "values": [{"measurement": "IC50", "setting": "δ opioid receptor (DOR)", "value": 1.15, "unit": "nM"}, {"measurement": "crossing the blood-brain barrier", "setting": "CPIP rats; inferred from centrally mediated analgesic effect after s.c. dosing", "value": "capable of crossing the blood-brain barrier"}, {"measurement": "Ki", "setting": "μ receptors", "value": 0.263, "unit": "nM"}, {"measurement": "Ki", "setting": "δ receptors", "value": 30.4, "unit": "nM"}]}
{"compound": "Cc1cc(O)cc(C)c1C[C@H](N)C(=O)N[C@H](CCCNC(=N)N)C(=O)N[C@@H](Cc1ccccc1)C(=O)N[C@@H](CCCCNC(=O)[C@@]1(C)CCc2c(C)c(O)c(C)c(C)c2O1)C(N)=O", "note": "[H-Dmt-D-Arg-Phe-Lys(Tro[R])-NH2]", "values": [{"measurement": "IC50", "setting": "δ opioid receptor (DOR)", "value": 0.847, "unit": "nM"}, {"measurement": "Ki", "setting": "μ receptors", "value": 0.273, "unit": "nM"}, {"measurement": "Ki", "setting": "δ receptors", "value": 3.64, "unit": "nM"}]}
{"compound": "Cc1cc(O)cc(C)c1C[C@H](N)C(=O)N[C@H](CCCNC(=N)N)C(=O)N[C@@H](Cc1ccccc1)C(=O)N[C@@H](CCCCNC(=O)[C@]1(C)CCc2c(C)c(O)c(C)c(C)c2O1)C(N)=O", "note": "[H-Dmt-D-Arg-Phe-Lys(Tro[S])-NH2, H-Dmt-D-Arg-Phe-Lys(Tro[S])—NH2]", "values": [{"measurement": "IC50", "setting": "δ opioid receptor (DOR)", "value": 3.76, "unit": "nM"}, {"measurement": "Ki", "setting": "μ receptors", "value": 0.252, "unit": "nM"}, {"measurement": "Ki", "setting": "δ receptors", "value": 3.48, "unit": "nM"}]}
{"compound": "Cc1cc(O)cc(C)c1C[C@H](N)C(=O)N[C@H](CCCNC(=N)N)C(=O)N[C@@H](Cc1ccccc1)C(=O)N[C@@H](CCCCN)C(N)=O", "note": "[H-Dmt-D-Arg-Phe-Lys-NH2]", "values": [{"measurement": "ED50 ± SEM (analgesic potency)", "setting": "CPIP rats; reversal of mechanical allodynia in CPIP rats, s.c. administration", "value": "0.103 ± 0.046", "unit": "mg/kg"}]}
{"compound": "Cc1cc(O)cc(C)c1C[C@H](N)C(=O)N[C@H](CCCNC(=N)N)C(=O)N[C@@H](Cc1ccccc1)C(=O)N[C@@H](CCCCN)C(=O)NCCC(=O)NC1CC(C)(C)N([O])C(C)(C)C1", "note": "[H-Dmt-D-Arg-Phe-Lys-NH—(CH2)2—CO—NH-TEMPO] (HELM PEPTIDE1{[Cc1cc(O)cc(C)c1C[C@H](N)C(=O)[*:2]].[dR].F.K.[bAla].[CC1(C)CC(N[*:1])CC(C)(C)N1[O]]}$$$$V2.0)", "values": [{"measurement": "IC50", "setting": "δ opioid receptor (DOR)", "value": 262, "unit": "nM"}, {"measurement": "Ki", "setting": "μ receptors", "value": 4.56, "unit": "nM"}, {"measurement": "Ki", "setting": "δ receptors", "value": 2.15, "unit": "nM"}]}
{"compound": "CN1CC[C@]23c4c5ccc(O)c4O[C@H]2[C@@H](O)C=C[C@H]3[C@H]1C5", "note": "[morphine]", "values": [{"measurement": "ED50", "setting": "CPIP rats; Rattus norvegicus, sc, read-out: ED50 ± SEM (analgesic potency)", "value": "1.55 ± 0.664", "unit": "mg/kg"}, {"measurement": "Potency Ratio", "setting": "CPIP rats; relative to morphine (=1), CPIP rats, s.c.", "value": 1}]}
